Test results reported in ChEMBL document CHEMBL1149645, “Malondialdehyde scavenging and aldose-derived Schiff bases' transglycation properties of synthetic histidyl-hydrazide carnosine analogs” (Bioorg Med Chem, 2007).
The source made the active and inactive calls. No cut-off for these calls is given here. Residues, ends and D or L forms follow the SMILES beside them. *: point of attachment. NHNH2 = NN*

Test: Malondialdehyde scavenging activity in iron/ascorbate-induced oxidation in PC liposomes at 10 mM by TBARS test
Format: functional

SMILES	Activity
NCCC(=O)N[C@@H](Cc1c[nH]cn1)C(=O)O	Active
NNC(=O)[C@H](Cc1c[nH]cn1)NC(=O)[C@@H](N)Cc1ccccc1 (H-Phe-His-NHNH2)	Active
NNC(=O)[C@@H](N)Cc1c[nH]cn1	Active
CC(C)CCCC(C)[C@H]1CCC2C3CC=C4C[C@@H](OC(=O)N[C@@H](Cc5c[nH]cn5)C(=O)NN)CC[C@]4(C)C3CC[C@@]21C (some centres undefined)	Active
NNC(=O)[C@H](Cc1c[nH]cn1)NC(=O)OCc1ccccc1	Active
NCC(=O)NN	Active
NNC(=O)CNC(=O)OCc1ccccc1	Active
Cc1c(C)c2c(c(C)c1OC(=O)CCC(=O)N[C@@H](Cc1c[nH]cn1)C(=O)NN)CCC(C)(CCCC(C)CCCC(C)CCCC(C)C)O2 (some centres undefined)	Active
CC(C)C[C@H](N)C(=O)N[C@@H](Cc1c[nH]cn1)C(=O)NN (H-Leu-His-NHNH2)	Active
